Tests used:
PCA response = test: Antiasthmatic activity test: passive cutaneous anaphylaxis response (PCA response); type: in vivo, Wistar strain male rats; details: Rattus norvegicus, rats; for minimal effective dose: po, minimum effective dose, depressing ratio of 50% or more counts as positive, read-out: MED; for inhibition in vivo at 2.5 mg/kg: Dose 2.5 mg/Kg PO; for inhibition in vivo at 5 mg/kg: Dose 5 mg/Kg PO; for inhibition in vivo at 10 mg/kg: Dose 10 mg/Kg PO; for inhibition in vivo at 25 mg/kg: Dose 25 mg/Kg PO; for inhibition in vivo at 50 mg/kg: Dose 50 mg/Kg PO; for inhibition in vivo at 100 mg/kg: Dose 100 mg/Kg PO
Procedure: Antiasthmatic activity is evaluated according to passive cutaneous anaphylaxis response (PCA response). Antiserum is collected from Wistar strain male rats weighing 200 to 250 g. PCA response is evaluated using Wistar strain male rats weighing 100 to 120 g.
One mg of egg albumin is dissolved in 0.5 ml of pertussisdiphtheria mixed vaccine, and the resulting solution is mixed with 0.5 ml of incomplete adjuvant. The resulting emulsion is used as antigen and administered to rats subcutaneously through the sole. On the 12th day after the administration, heads of the rats are cut to collect blood. Thus, antiserum is prepared.
Upon evaluating antiasthmatic activity, concentration of the antiserum is adjusted so that diameter of blue-dyed portion is about 8 to about 10 mm.
Six rats are used per group. 0.05 ml of the antiserum is intracutaneously administered to each of the previously back-shaved rats to sensitize. After 17 hours, compound I or the solutions thereof (physiological salt solution or CMC solution) are respectively administered and, after 60 minutes, an antigen mixture (1% Evans' Blue physiological salt solution containing 0.2% egg albumin) is injected intravenously in an amount of 0.5 ml/100 g to induce PCA. response. After 30 minutes, rats are choked to death followed by cutting out skin to measure the diameter of blue-dyed portion. The results are evaluated by awarding a score according to the diameter of blue―dved portion. Furthermore, ratios of the diameters to that of solvent (psysiological salt solution or CMC) administered group are snowing a depressing ratio of 50% or more calculated according to the following formula are concluded to show positive antiasthmatic activity. Also, the minimum effective dose (MED) is determined from the results with respective doses to compare the strength of entrasthamatis activity.

male dd-strain mice = test: Acute toxicity test; type: in vivo; details: mortality for 7 days after administration
Procedure: Groups of male dd-strain mice (each croup consisting of five mice) weighing 20 + 1 g are used. Compound I are administered orally (po : 0.3 mg/g) or intraperitoneally (ip : 0.1 mg/g). The MLD lethal dose) is calculated from the mortality for 7 days after the administration to obtain the results given in Table 1.

[1] = given 60 minutes before antigen, read-out: depressing ratio

Compound	minimal effective dose (PCA response) [mg/kg]	inhibition in vivo at 1 mg/kg (PCA response; Dose 1 mg/Kg PO, given 60 minutes before antigen, read-out: depressing ratio) [%]	inhibition in vivo at 2.5 mg/kg (PCA response; [1]) [%]	inhibition in vivo at 5 mg/kg (PCA response; [1]) [%]	inhibition in vivo at 10 mg/kg (PCA response; [1]) [%]	inhibition in vivo at 25 mg/kg (PCA response; [1]) [%]	inhibition in vivo at 50 mg/kg (PCA response; [1]) [%]	inhibition in vivo at 100 mg/kg (PCA response; [1]) [%]	MLD (male dd-strain mice; ip) [mg/kg]	MLD (male dd-strain mice; po) [mg/kg]
Cc1ccc2c(c1)C(SCCN(C)C)c1ccccc1CO2 (stereo not drawn) [Compound 1, 2-methyl-11-[2-(dimethylamino)ethyl]thio-6,11-dihydrodibenz[b,e]oxepin]	2.5	49	81	100	100	100	100	100	>100	>300
CCN(CC)CCSC1c2ccccc2COc2ccc(C)cc21 (stereo not drawn) [Compound 2, 2-methyl-11-[2-(diethylamino)ethyl]thio-6,11-dihydrodibenz[b,e]oxepin]	10	–	20	40	52	100	100	100	>100	>300
CCN(CC)CCSC1c2ccccc2COc2c(C)cccc21 (stereo not drawn) [Compound 3, 4-methyl-11-[2-(diethylamino)ethyl]thio-6,11-dihydrodibenz[b,e]oxepin]	100	–	–	–	–	–	14	52	>100	>300
CCN(CC)CCSC1c2ccccc2COc2ccc(Cl)cc21 (stereo not drawn) [Compound 4, 2-chloro-11-[2-(diethylamino)ethyl]thio-6,11-dihydrodibenz[b,e]oxepin]	50	–	–	–	10	46	100	100	>100	>300
CCc1ccc2c(c1)C(SCCN(CC)CC)c1ccccc1CO2 (stereo not drawn) [Compound 5, 2-ethyl-11-[2-(diethylamino)ethyl]thio-6,11-dihydrodibenz[b,e]oxepin]	10	–	–	36	56	100	100	100	100	>300
CCN(CC)CCSC1c2ccccc2COc2ccc(F)cc21 (stereo not drawn) [Compound 6, 2-fluoro-11-[2-(diethylamino)ethyl]thio-6,11-dihydrodibenz[b,e]oxepin]	25	–	–	–	3	84	100	100	>100	>300
CCc1ccc2c(c1)C(SCCN(C)C)c1ccccc1CO2 (stereo not drawn) [Compound 7, 2-ethyl-11-[2-(dimethylamino)ethyl]thio-6,11-dihydrodibenz[b,e]oxepin]	5	–	30	81	100	100	100	100	>100	>300
CN(C)CCSC1c2ccccc2COc2ccc(F)cc21 (stereo not drawn) [Compound 8, 2-fluoro-11-[2-(dimethylamino)ethyl]thio-6,11-dihydrodibenz[b,e]oxepin]	25	–	–	23	33	100	100	100	>100	>300
CCc1ccc2c(c1)C(SCCN(C(C)C)C(C)C)c1ccccc1CO2 (stereo not drawn) [Compound 9, 2-ethyl-11-[2-(diisopropylamino)ethyl]thio-6,11-dihydrodibenz[b,e]oxepin]	25	–	–	–	22	67	100	100	>100	>300
CC(C)N(CCSC1c2ccccc2COc2ccc(F)cc21)C(C)C (stereo not drawn) [Compound 10, 2-fluoro-11-[2-(diisopropylamino)ethyl]thio-6,11-dihydrodibenz[b,e]oxepin]	100	–	–	–	0	11	11	73	>100	>300
Cc1ccc2c(c1)OCc1ccccc1C2SCCN(C)C (stereo not drawn) [Compound 11, 3-methyl-11-[2-(dimethylamino)ethyl]thio-6,11-dihydrodibenz[b,e]oxepin]	50	–	–	–	0	28	61	61	>100	>300
